Results: the NIST ThermoML archive (doi:10.1007/s10765-005-8096-3)
± gives the expanded uncertainty stated by the source.

Assay: refractive index (Na D-line) (dimensionless); xn = mol fraction of the nth substance listed
Conditions: 101 kPa, Liquid, Standard Abbe refractometry

In the case of `CC(C)Cc1ccccc1` [(2-methylpropyl)benzene] + CCCCOC(C)=O, the refractive index (293.15 K, x2 = 0.056) is reported as 1.48206 ± 0.00066, the refractive index (293.15 K, x2 = 0.1042) is reported as 1.47812 ± 0.00067 and the refractive index (293.15 K, x2 = 0.1619) is reported as 1.47345 ± 0.00067. For the same compound, the refractive index (293.15 K, x2 = 0.201) was 1.47035 ± 0.00067, the refractive index (293.15 K, x2 = 0.2486) was 1.46644 ± 0.00068 and the refractive index (293.15 K, x2 = 0.3027) was 1.4618 ± 0.00068. For the same compound, the refractive index (293.15 K, x2 = 0.3619) was 1.45664 ± 0.00069, the refractive index (293.15 K, x2 = 0.3994) was 1.4533 ± 0.00068 and the refractive index (293.15 K, x2 = 0.4537) was 1.44838 ± 0.00067. It also gave a refractive index (293.15 K, x2 = 0.5056) of 1.44366 ± 0.00067, a refractive index (293.15 K, x2 = 0.5506) of 1.43942 ± 0.00067 and a refractive index (293.15 K, x2 = 0.5973) of 1.43506 ± 0.00067. For the same compound, the refractive index (293.15 K, x2 = 0.6485) was 1.43012 ± 0.00067, the refractive index (293.15 K, x2 = 0.6954) was 1.42551 ± 0.00067 and the refractive index (293.15 K, x2 = 0.751) was 1.41999 ± 0.00066. It also gave a refractive index (293.15 K, x2 = 0.7981) of 1.41525 ± 0.00066, a refractive index (293.15 K, x2 = 0.8469) of 1.41021 ± 0.00066 and a refractive index (293.15 K, x2 = 0.8995) of 1.40482 ± 0.00066. The refractive index (293.15 K, x2 = 0.9482) was 1.39966 ± 0.00065, the refractive index (298.15 K, x2 = 0.056) was 1.47965 ± 0.00067 and the refractive index (298.15 K, x2 = 0.1042) was 1.47565 ± 0.00067. It also gave a refractive index (298.15 K, x2 = 0.1619) of 1.47097 ± 0.00067, a refractive index (298.15 K, x2 = 0.201) of 1.46781 ± 0.00068 and a refractive index (298.15 K, x2 = 0.2486) of 1.46384 ± 0.00068. For the same compound, the refractive index (298.15 K, x2 = 0.3027) was 1.45922 ± 0.00069, the refractive index (298.15 K, x2 = 0.3619) was 1.45401 ± 0.00068 and the refractive index (298.15 K, x2 = 0.3994) was 1.45072 ± 0.00068. The refractive index (298.15 K, x2 = 0.4537) was 1.44587 ± 0.00068, the refractive index (298.15 K, x2 = 0.5056) was 1.4411 ± 0.00068 and the refractive index (298.15 K, x2 = 0.5506) was 1.43693 ± 0.00067. For the same compound, the refractive index (298.15 K, x2 = 0.5973) was 1.43254 ± 0.00067, the refractive index (298.15 K, x2 = 0.6485) was 1.42758 ± 0.00068 and the refractive index (298.15 K, x2 = 0.6954) was 1.423 ± 0.00067. The refractive index (298.15 K, x2 = 0.751) was 1.41754 ± 0.00067, the refractive index (298.15 K, x2 = 0.7981) was 1.41278 ± 0.00067 and the refractive index (298.15 K, x2 = 0.8469) was 1.40779 ± 0.00066. For the same compound, the refractive index (298.15 K, x2 = 0.8995) was 1.40235 ± 0.00066, the refractive index (298.15 K, x2 = 0.9482) was 1.3973 ± 0.00066 and the refractive index (303.15 K, x2 = 0.056) was 1.47708 ± 0.00069. It also gave a refractive index (303.15 K, x2 = 0.1042) of 1.4731 ± 0.00067, a refractive index (303.15 K, x2 = 0.1619) of 1.4685 ± 0.00067 and a refractive index (303.15 K, x2 = 0.201) of 1.46524 ± 0.00068. It also gave a refractive index (303.15 K, x2 = 0.2486) of 1.46128 ± 0.00068, a refractive index (303.15 K, x2 = 0.3027) of 1.45658 ± 0.00068 and a refractive index (303.15 K, x2 = 0.3619) of 1.45147 ± 0.00067. For the same compound, the refractive index (303.15 K, x2 = 0.3994) was 1.44816 ± 0.00068, the refractive index (303.15 K, x2 = 0.4537) was 1.44328 ± 0.00068 and the refractive index (303.15 K, x2 = 0.5056) was 1.43853 ± 0.00068. It also gave a refractive index (303.15 K, x2 = 0.5506) of 1.43443 ± 0.00068, a refractive index (303.15 K, x2 = 0.5973) of 1.43002 ± 0.00067 and a refractive index (303.15 K, x2 = 0.6485) of 1.42505 ± 0.00067. For the same compound, the refractive index (303.15 K, x2 = 0.6954) was 1.42052 ± 0.00067, the refractive index (303.15 K, x2 = 0.751) was 1.41506 ± 0.00067 and the refractive index (303.15 K, x2 = 0.7981) was 1.4103 ± 0.00067. The refractive index (303.15 K, x2 = 0.8469) was 1.40535 ± 0.00066, the refractive index (303.15 K, x2 = 0.8995) was 1.39997 ± 0.00065 and the refractive index (303.15 K, x2 = 0.9482) was 1.39479 ± 0.00067. It also gave a refractive index (308.15 K, x2 = 0.056) of 1.47442 ± 0.00067, a refractive index (308.15 K, x2 = 0.1042) of 1.47066 ± 0.00067 and a refractive index (308.15 K, x2 = 0.1619) of 1.46595 ± 0.00067. It also gave a refractive index (308.15 K, x2 = 0.201) of 1.46268 ± 0.00068, a refractive index (308.15 K, x2 = 0.2486) of 1.45868 ± 0.00068 and a refractive index (308.15 K, x2 = 0.3027) of 1.45405 ± 0.00067. The refractive index (308.15 K, x2 = 0.3619) was 1.44897 ± 0.00068, the refractive index (308.15 K, x2 = 0.3994) was 1.44564 ± 0.00068 and the refractive index (308.15 K, x2 = 0.4537) was 1.44077 ± 0.00067. It also gave a refractive index (308.15 K, x2 = 0.5056) of 1.43602 ± 0.00067, a refractive index (308.15 K, x2 = 0.5506) of 1.43187 ± 0.00067 and a refractive index (308.15 K, x2 = 0.5973) of 1.4275 ± 0.00067. It also gave a refractive index (308.15 K, x2 = 0.6485) of 1.42256 ± 0.00067, a refractive index (308.15 K, x2 = 0.6954) of 1.41799 ± 0.00067 and a refractive index (308.15 K, x2 = 0.751) of 1.41255 ± 0.00067. For the same compound, the refractive index (308.15 K, x2 = 0.7981) was 1.40782 ± 0.00067, the refractive index (308.15 K, x2 = 0.8469) was 1.4029 ± 0.00067 and the refractive index (308.15 K, x2 = 0.8995) was 1.39757 ± 0.00067. For the same compound, the refractive index (308.15 K, x2 = 0.9482) was 1.39237 ± 0.00066, the refractive index (313.15 K, x2 = 0.056) was 1.47211 ± 0.00064 and the refractive index (313.15 K, x2 = 0.1042) was 1.46813 ± 0.00067. It also gave a refractive index (313.15 K, x2 = 0.1619) of 1.4635 ± 0.00068, a refractive index (313.15 K, x2 = 0.201) of 1.46015 ± 0.00067 and a refractive index (313.15 K, x2 = 0.2486) of 1.45618 ± 0.00068. For the same compound, the refractive index (313.15 K, x2 = 0.3027) was 1.45156 ± 0.00067, the refractive index (313.15 K, x2 = 0.3619) was 1.44641 ± 0.00068 and the refractive index (313.15 K, x2 = 0.3994) was 1.4431 ± 0.00068. The refractive index (313.15 K, x2 = 0.4537) was 1.43826 ± 0.00068, the refractive index (313.15 K, x2 = 0.5056) was 1.43356 ± 0.00067 and the refractive index (313.15 K, x2 = 0.5506) was 1.4294 ± 0.00067. The refractive index (313.15 K, x2 = 0.5973) was 1.42498 ± 0.00068, the refractive index (313.15 K, x2 = 0.6485) was 1.42003 ± 0.00068 and the refractive index (313.15 K, x2 = 0.6954) was 1.41549 ± 0.00067. For the same compound, the refractive index (313.15 K, x2 = 0.751) was 1.41004 ± 0.00068, the refractive index (313.15 K, x2 = 0.7981) was 1.40532 ± 0.00067 and the refractive index (313.15 K, x2 = 0.8469) was 1.40036 ± 0.00068. It also gave a refractive index (313.15 K, x2 = 0.8995) of 1.39493 ± 0.00069 and a refractive index (313.15 K, x2 = 0.9482) of 1.38994 ± 0.00066.
